Data published in publication PMC9959349, “Discovery of the 3-Amino-1,2,4-triazine-Based Library as Selective PDK1 Inhibitors with Therapeutic Potential in Highly Aggressive Pancreatic Ductal Adenocarcinoma” (International Journal of Molecular Sciences, 2023).

Legend:
PSN-1 cells [1] = test: 2D cytotoxicity, MTT assay, PSN-1; format: cell-based; settings: Homo sapiens, PSN1, 72 h, 72 h, MTT test, KRAS-mutant PSN-1; read-out: IC50 ±S.D. PSN-1 (2D cytotoxicity)
Description: (§1) All newly synthesized compounds were then screened for their cytotoxic activity against two human PDAC cell lines, namely a KRAS-wild-type PDAC cell line (BxPC-3 cells) and a KRAS-mutant PDAC cell line (PSN-1 cells). […] The cytotoxicity parameters, expressed in terms of IC50 and obtained after 72 h of drug exposure by MTT assay, are listed in the Supplementary Materials (Table S2).
(§2) The growth inhibitory effect on tumor cells was evaluated by means of the MTT assay. Briefly, 3–8 × 10^3 cells/well, dependent upon the growth characteristics of the cell line, were seeded in 96-well microplates in growth medium (100 μL). After 24 h, the medium was removed and replaced with a fresh one containing the compound to be studied at the appropriate concentration. Triplicate cultures were established for each treatment. After 72 h, each well was treated with 10 μL of a 5 mg/mL MTT saline solution, and following 5 h of incubation, 100 μL of a sodium dodecyl sulfate (SDS) solution in HCl 0.01 M was added. After overnight incubation, cell growth inhibition was detected by measuring the absorbance of each well at 570 nm using a Bio-Rad 680 microplate reader. The mean absorbance for each drug dose was expressed as a percentage of the control untreated well absorbance and plotted vs. drug concentration. IC50 values, the drug concentrations that reduce the mean absorbance at 570 nm to 50% of those in the untreated control wells, were calculated by the four-parameter logistic (4-PL) model. The evaluation was based on means from at least four independent experiments.

BxPC-3 cells [2] = test: 2D cytotoxicity, MTT assay, BxPC-3; format: cell-based; settings: Homo sapiens, BXPC-3, 72 h, 72 h, MTT test, KRAS-wild-type BxPC-3; read-out: IC50 ±S.D. BxPC-3 (2D cytotoxicity)
Description: as §1, §2

PSN-1 cells [3] = test: 3D spheroid cytotoxicity, acid phosphatase (APH) assay, PSN-1; settings: read-out: IC50 ±S.D. PSN-1 (3D cytotoxicity); spheroids, 72 h, APH test
Description: (§3) The PDAC cancer spheroids were treated with tested compounds for 72 h, and cell viability was assessed by means of the acid phosphatase (APH) assay (Table 3).
(§4) An APH-modified assay was used for determining cell viability in 3D spheroids, as previously described [61]. Briefly, the pre-seeded spheroids were treated with fresh medium containing the compound to be studied at the appropriate concentration (range 2.5–200 μM). Triplicate cultures were established for each treatment. After 72 h, each well was treated with 100 μL of the assay buffer (0.1 M sodium acetate, 0.1% Triton-X-100, supplemented with ImmunoPure p-nitrophenyl phosphate; Sigma Chemical Co., Ltd.) and, following 3 h of incubation, 10 μL of 1 M NaOH solution was added. […] The mean absorbance for each drug dose was expressed as a percentage of the control untreated well absorbance (T/C) and plotted vs. drug concentration. […] The evaluation was based on means from at least four independent experiments.

BxPC-3 cells [4] = test: 3D spheroid cytotoxicity, acid phosphatase (APH) assay, BxPC-3; settings: read-out: IC50 ±S.D. BxPC-3 (3D cytotoxicity); spheroids, 72 h, APH test
Description: as §3, §4

| SMILES | melting point | other results |
| --- | --- | --- |
| Nc1nnc(-c2c[nH]c3ccccc23)c(-c2c[nH]c3ccccc23)n1 [5a] | 288.2 °C | – |
| COc1ccc2[nH]cc(-c3nnc(N)nc3-c3cn(C)c4ccc(Br)cc34)c2c1 [5aa] | 267.8 °C | – |
| Nc1nnc(-c2c[nH]c3ccc(F)cc23)c(-c2c[nH]c3ccc(F)cc23)n1 [5c] | 178.1 °C | – |
| Cn1cc(-c2nnc(N)nc2-c2cn(C)c3ccccc23)c2ccccc21 [5e] | 274.4 °C | – |
| Cn1cc(-c2nnc(N)nc2-c2cn(C)c3ccc(F)cc23)c2cc(F)ccc21 [5g] | 236.5 °C | IC50 (PSN-1 cells [3]): 5.8 ± 0.8 µM; IC50 (BxPC-3 cells [4]): 19.5 ± 2.1 µM |
| Cn1cc(-c2nc(N)nnc2-c2c[nH]c3ccccc23)c2cc(Br)ccc21 [5o] | 271 °C | IC50 (PSN-1 cells [1]): 0.5 ± 0.1 µM; IC50 (BxPC-3 cells [2]): 0.2 ± 0.03 µM |
| Cn1cc(-c2nc(N)nnc2-c2c[nH]c3ccc(Br)cc23)c2cc(Br)ccc21 [5r] | 239 °C | – |
| COc1ccc2[nH]cc(-c3nnc(N)nc3-c3cn(C)c4ccccc34)c2c1 [5z] | 249.4 °C | – |
| COc1ccc2c(c1)c(-c1nnc(N)nc1-c1cn(C)c3ccc(F)cc13)cn2C [6k] | 251.2 °C | IC50 (PSN-1 cells [3]): 9.4 ± 0.2 µM; IC50 (BxPC-3 cells [4]): 22.3 ± 2.6 µM |
| Cn1cc(-c2nnc(N)nc2-c2c[nH]c3ccccc23)c2cc(Br)ccc21 [6o] | 291 °C | IC50 (PSN-1 cells [1]): 0.4 ± 0.04 µM; IC50 (BxPC-3 cells [2]): 0.3 ± 0.03 µM |
| COc1ccc2c(c1)c(-c1nnc(N)nc1-c1c[nH]c3ccccc13)cn2C [6p] | 279.6 °C | – |
| Cn1cc(-c2nnc(N)nc2-c2c[nH]c3ccc(Br)cc23)c2cc(F)ccc21 [6t] | 314.3 °C | – |
| Cn1cc(-c2nc(N)nnc2-c2c[nH]c3ccc(F)cc23)c2cc(F)ccc21 [6u] | 259.5 °C | – |
| COc1ccc2[nH]cc(-c3nc(N)nnc3-c3cn(C)c4ccccc34)c2c1 [6z] | 243.3 °C | – |
| O=C(O)C(Cl)Cl [DCA, Dichloroacetic acid, reference compound] | – | IC50 (PSN-1 cells [3]): > 1000 µM; IC50 (BxPC-3 cells [4]): > 1000 µM |

Second part, led by results:

| melting point | SMILES | other results |
| --- | --- | --- |
| 208.2 °C | Nc1nnc(-c2c[nH]c3ccc(Br)cc23)c(-c2c[nH]c3ccc(Br)cc23)n1 [5d] | IC50 (PSN-1 cells [1]): 0.3 ± 0.04 µM; IC50 (BxPC-3 cells [2]): 0.4 ± 0.1 µM |
| 199.5 °C | COc1ccc2c(c1)c(-c1nnc(N)nc1-c1cn(C)c3ccc(OC)cc13)cn2C [5f] | – |
| 246.6 °C | Cn1cc(-c2nc(N)nnc2-c2c[nH]c3ccccc23)c2ccccc21 [5m] | – |
| 254.3 °C | Cn1cc(-c2nc(N)nnc2-c2c[nH]c3ccccc23)c2cc(F)ccc21 [5n] | – |
| 288.4 °C | COc1ccc2c(c1)c(-c1nc(N)nnc1-c1c[nH]c3ccccc13)cn2C [5p] | – |
| 266.9 °C | Cn1cc(-c2nc(N)nnc2-c2c[nH]c3ccc(Br)cc23)c2cc(F)ccc21 [5t] | IC50 (PSN-1 cells [1]): 0.4 ± 0.1 µM; IC50 (BxPC-3 cells [2]): 1.4 ± 0.2 µM |
| 285.9 °C | Cn1cc(-c2nc(N)nnc2-c2c[nH]c3ccc(F)cc23)c2ccccc21 [5v] | IC50 (PSN-1 cells [1]): 0.2 ± 0.04 µM; IC50 (BxPC-3 cells [2]): 0.2 ± 0.03 µM |
| 205.5 °C | COc1ccc2[nH]cc(-c3nnc(N)nc3-c3cn(C)c4ccc(OC)cc34)c2c1 [5y] | – |
| 241.8 °C | COc1ccc2[nH]cc(-c3nc(N)nnc3-c3cn(C)c4ccc(Br)cc34)c2c1 [6aa] | – |
| 311.3 °C | Cn1cc(-c2nnc(N)nc2-c2c[nH]c3ccccc23)c2ccccc21 [6m] | – |
| 282.4 °C | Cn1cc(-c2nnc(N)nc2-c2c[nH]c3ccc(Br)cc23)c2cc(Br)ccc21 [6r] | – |
| 295.8 °C | Cn1cc(-c2nnc(N)nc2-c2c[nH]c3ccc(F)cc23)c2ccccc21 [6v] | IC50 (PSN-1 cells [1]): 0.2 ± 0.03 µM; IC50 (BxPC-3 cells [2]): 0.1 ± 0.02 µM |
| 270.2 °C | Cn1cc(-c2nnc(N)nc2-c2c[nH]c3ccc(F)cc23)c2cc(Br)ccc21 [6x] | IC50 (PSN-1 cells [1]): 0.3 ± 0.04 µM; IC50 (BxPC-3 cells [2]): 0.3 ± 0.1 µM |
| 263.3 °C | COc1ccc2[nH]cc(-c3nc(N)nnc3-c3cn(C)c4ccc(OC)cc34)c2c1 [6y] | IC50 (PSN-1 cells [1]): 0.6 ± 0.04 µM; IC50 (BxPC-3 cells [2]): 0.3 ± 0.1 µM |
